{"source": "patent US9107918B2", "about": "“Method for determining sensitivity to irinotecan and use thereof” (Kabushiki Kaisha Yakult Honsha, priority 2009, dated 2015)", "assay_type_in_all_cases": "cell-based, human", "key": {"[1]": {"tested_on": "acquired multidrug resistant cell line K562/DOX", "assay": "MTT growth inhibition, K562/DOX", "settings": "K562/DOX cells, 72 hours drug exposure", "description": "(§1) The sensitivity, to irinotecan and SN-38, of the 19 cultured human tumor cell lines which had been subjected to comprehensive gene expression analysis was determined through the MTT (methylthiazol tetrazolium bromide) method. Specifically, 4×10^3 cells/well of each cell line and 80 μL/well of culture medium (10% fetal serum-added RPMI1640 medium) were added to each well of a 96-well microplate (Nunclon; Nunc, Roskilde, Denmark), and culturing was performed for 24 hours in an incubator at 37° C. under 5% CO2. Thereafter, the culture medium (10% fetal serum-added RPMI1640 medium) was renewed, and SN-38 or irinotecan was added thereto at various concentrations. Culturing was further performed for 72 hours in an incubator at 37° C. under 5% CO2. […] By means of a microplate reader (Maxline Microplate Reader, Molecular Devices, Sunnyvale, Calif.), absorbance at 570 to 650 nm was measured. An average absorbance of wells of culture medium was subtracted from the absorbance of each well of the drug-treatment group, and the obtained values of the wells were averaged. Similarly, the average absorbance of wells of culture medium was subtracted from the absorbance of each well of the control group (non-drug-treatment group), and the obtained values of the wells were averaged. […]"}, "[2]": {"tested_on": "myelogenous leukemia cell line K562", "assay": "MTT growth inhibition, K562", "settings": "K562 cells, 72 hours drug exposure", "description": "as §1"}, "[3]": {"tested_on": "lung adenocarcinoma cell line PC-9", "assay": "MTT growth inhibition, PC-9", "settings": "PC-9 cells, 72 hours drug exposure", "description": "as §1"}, "[4]": {"tested_on": "lung adenocarcinoma cell line A549", "assay": "MTT growth inhibition, A549", "settings": "A549 cells, 72 hours drug exposure", "description": "as §1"}, "[5]": {"tested_on": "gastric cancer cell line HSC-42", "assay": "MTT growth inhibition, HSC-42", "settings": "HSC-42 cells, 72 hours drug exposure", "description": "as §1"}, "[6]": {"tested_on": "acquired CDDP resistant cell line PC-14/CDDP", "assay": "MTT growth inhibition, PC-14/CDDP", "settings": "PC-14/CDDP cells, 72 hours drug exposure", "description": "as §1"}, "[7]": {"tested_on": "colon cancer cell line COLO201", "assay": "MTT growth inhibition, COLO201", "settings": "COLO201 cells, 72 hours drug exposure", "description": "as §1"}, "[8]": {"tested_on": "gastric cancer cell line MKN45", "assay": "MTT growth inhibition, MKN45", "settings": "MKN45 cells, 72 hours drug exposure", "description": "as §1"}, "[9]": {"tested_on": "lung adenocarcinoma cell line PC-14", "assay": "MTT growth inhibition, PC-14", "settings": "PC-14 cells, 72 hours drug exposure", "description": "as §1"}, "[10]": {"tested_on": "esophageal cancer cell line HEC-46", "assay": "MTT growth inhibition, HEC-46", "settings": "HEC-46 cells, 72 hours drug exposure", "description": "as §1"}, "[11]": {"tested_on": "colon cancer cell line HCC-48", "assay": "MTT growth inhibition, HCC-48", "settings": "HCC-48 cells, 72 hours drug exposure", "description": "as §1"}, "[12]": {"tested_on": "small-cell lung cancer cell line PC-6", "assay": "MTT growth inhibition, PC-6", "settings": "PC-6 cells, 72 hours drug exposure", "description": "as §1"}, "[13]": {"tested_on": "acquired CPT-11 resistant cell line PC-6/DQ2-2", "assay": "MTT growth inhibition, PC-6/DQ2-2", "settings": "PC-6/DQ2-2 cells, 72 hours drug exposure", "description": "as §1"}, "[14]": {"tested_on": "oral epithelium epidermal cancer cell line KB", "assay": "MTT growth inhibition, KB", "settings": "KB cells, 72 hours drug exposure", "description": "as §1"}, "[15]": {"tested_on": "colon cancer cell line COLO320DM", "assay": "MTT growth inhibition, COLO320DM", "settings": "COLO320DM cells, 72 hours drug exposure", "description": "as §1"}, "[16]": {"tested_on": "squamous cell lung cancer cell line LC-S", "assay": "MTT growth inhibition, LC-S", "settings": "LC-S cells, 72 hours drug exposure", "description": "as §1"}, "[17]": {"tested_on": "colon cancer cell line HCC-50", "assay": "MTT growth inhibition, HCC-50", "settings": "HCC-50 cells, 72 hours drug exposure", "description": "as §1"}, "[18]": {"tested_on": "acquired SN-38 resistant cell line PC-6/SN2-5", "assay": "MTT growth inhibition, PC-6/SN2-5", "settings": "PC-6/SN2-5 cells, 72 hours drug exposure", "description": "as §1"}, "[19]": {"tested_on": "acquired CDDP (cisplatin) resistant cell line PC-9/CDDP", "assay": "MTT growth inhibition, PC-9/CDDP", "settings": "PC-9/CDDP cells, 72 hours drug exposure", "description": "as §1"}, "[20]": {"settings": "Homo sapiens, read-out: 50% Growth inhibitory concentration (IC50) determined by MTT method"}}, "note": "Where a name gives a salt, the structure may show the parent alone."}
{"compound": "CCc1c2c(nc3ccc(O)cc13)-c1cc3c(c(=O)n1C2)COC(=O)[C@]3(O)CC", "note": "[SN-38, 7-ethyl-10-hydroxycamptothecin]", "values": [{"measurement": "50% Growth inhibitory concentration (IC50) determined by MTT method", "setting": "[1]", "result": 0.0041, "unit": "mg/L"}, {"measurement": "50% Growth inhibitory concentration (IC50) determined by MTT method", "setting": "[2]", "result": 0.00284, "unit": "mg/L"}, {"measurement": "50% Growth inhibitory concentration (IC50) determined by MTT method", "setting": "[3]", "result": 0.00817, "unit": "mg/L"}, {"measurement": "50% Growth inhibitory concentration (IC50) determined by MTT method", "setting": "[4]", "result": 0.02523, "unit": "mg/L"}, {"measurement": "50% Growth inhibitory concentration (IC50) determined by MTT method", "setting": "[5]", "result": 0.00281, "unit": "mg/L"}, {"measurement": "50% Growth inhibitory concentration (IC50) determined by MTT method", "setting": "[6]", "result": 0.00626, "unit": "mg/L"}, {"measurement": "50% Growth inhibitory concentration (IC50) determined by MTT method", "setting": "[7]", "result": 0.00284, "unit": "mg/L"}, {"measurement": "50% Growth inhibitory concentration (IC50) determined by MTT method", "setting": "[8]", "result": 0.0026, "unit": "mg/L"}, {"measurement": "50% Growth inhibitory concentration (IC50) determined by MTT method", "setting": "[9]", "result": 0.01116, "unit": "mg/L"}, {"measurement": "50% Growth inhibitory concentration (IC50) determined by MTT method", "setting": "[10]", "result": 0.03482, "unit": "mg/L"}, {"measurement": "50% Growth inhibitory concentration (IC50) determined by MTT method", "setting": "[11]", "result": 0.00199, "unit": "mg/L"}, {"measurement": "50% Growth inhibitory concentration (IC50) determined by MTT method", "setting": "[12]", "result": 0.00291, "unit": "mg/L"}, {"measurement": "50% Growth inhibitory concentration (IC50) determined by MTT method", "setting": "[13]", "result": 0.09735, "unit": "mg/L"}, {"measurement": "50% Growth inhibitory concentration (IC50) determined by MTT method", "setting": "[14]", "result": 0.00526, "unit": "mg/L"}, {"measurement": "50% Growth inhibitory concentration (IC50) determined by MTT method", "setting": "[15]", "result": 0.00343, "unit": "mg/L"}, {"measurement": "50% Growth inhibitory concentration (IC50) determined by MTT method", "setting": "[16]", "result": 0.13707, "unit": "mg/L"}, {"measurement": "50% Growth inhibitory concentration (IC50) determined by MTT method", "setting": "[17]", "result": 0.02227, "unit": "mg/L"}, {"measurement": "50% Growth inhibitory concentration (IC50) determined by MTT method", "setting": "[18]", "result": 0.0244, "unit": "mg/L"}, {"measurement": "50% Growth inhibitory concentration (IC50) determined by MTT method", "setting": "[19]", "result": 0.00905, "unit": "mg/L"}]}
{"compound": "CCc1c2c(nc3ccc(OC(=O)N4CCC(N5CCCCC5)CC4)cc13)-c1cc3c(c(=O)n1C2)COC(=O)[C@]3(O)CC", "note": "[Irinotecan, Irinotecan hydrochloride]", "values": [{"measurement": "IC50", "setting": "[1]; [20]", "result": 3.93, "unit": "mg/L"}, {"measurement": "IC50", "setting": "[2]; [20]", "result": 2.3, "unit": "mg/L"}, {"measurement": "IC50", "setting": "[3]; [20]", "result": 2.75, "unit": "mg/L"}, {"measurement": "IC50", "setting": "[4]; [20]", "result": 5.63, "unit": "mg/L"}, {"measurement": "IC50", "setting": "[5]; [20]", "result": 0.743, "unit": "mg/L"}, {"measurement": "IC50", "setting": "[6]; [20]", "result": 4.03, "unit": "mg/L"}, {"measurement": "IC50", "setting": "[7]; Homo sapiens, COLO 201, read-out: 50% Growth inhibitory concentration (IC50) determined by MTT method", "result": 0.979, "unit": "mg/L"}, {"measurement": "IC50", "setting": "[8]; Homo sapiens, MKN-45, read-out: 50% Growth inhibitory concentration (IC50) determined by MTT method", "result": 0.809, "unit": "mg/L"}, {"measurement": "IC50", "setting": "[9]; [20]", "result": 4.67, "unit": "mg/L"}, {"measurement": "IC50", "setting": "[10]; [20]", "result": 7.79, "unit": "mg/L"}, {"measurement": "IC50", "setting": "[11]; [20]", "result": 1.11, "unit": "mg/L"}, {"measurement": "IC50", "setting": "[12]; [20]", "result": 0.691, "unit": "mg/L"}, {"measurement": "IC50", "setting": "[13]; [20]", "result": 4.26, "unit": "mg/L"}, {"measurement": "IC50", "setting": "[14]; [20]", "result": 2.23, "unit": "mg/L"}, {"measurement": "IC50", "setting": "[15]; Homo sapiens, COLO 320DM, read-out: 50% Growth inhibitory concentration (IC50) determined by MTT method", "result": 1.78, "unit": "mg/L"}, {"measurement": "IC50", "setting": "[16]; [20]", "result": 18.9, "unit": "mg/L"}, {"measurement": "IC50", "setting": "[17]; [20]", "result": 5.11, "unit": "mg/L"}, {"measurement": "IC50", "setting": "[18]; [20]", "result": 2.85, "unit": "mg/L"}, {"measurement": "IC50", "setting": "[19]; [20]", "result": 2.68, "unit": "mg/L"}]}
